Data as given in PMC11684029, “Discovery of VU6024578/BI02982816: An mGlu1 Positive Allosteric Modulator with Efficacy in Preclinical Antipsychotic and Cognition Models” (Journal of Medicinal Chemistry, 2024).

Key:
C57Bl/6 mice = assay: amphetamine-induced hyperlocomotion (mouse); assay type: in vivo
Description: In parallel with the rat AHL study, we carried out a mouse AHL study to determine if the PK/PD relationship would remain intact across rodent species. Here, amphetamine was dosed to C57Bl/6 mice at 3 mg/kg s.c. to achieve ∼800 beam breaks, followed by the oral administration of 19d at 3, 10, and 30 mg/kg (Figure 8). […] Thus, mGlu1 has sufficient target coverage and PK/PD^24 is established for this paradigm in mouse and agree well with the PK/PD relationship established in rat for both NOR and AHL wherein free brain concentrations at or above the in vitro EC50 facilitates a significant pharmacodynamic response.
Figure 8 Mouse amphetamine-induced hyperlocomotion and reversal by VU6024578 (19d). Amphetamine (3.0 mg/kg s.c.) induced robust hyperlocomotion, which was dose-dependently reversed by oral administration (0.5% Natrasol/0.015% tween 80 in H2O) of 19d. TEXT PRINTED IN THE PICTURE: VU6024578-09: Mean % reversal: -7.7 ± 32.6 (3 mg/kg i.p. + Amphetamine 3 mg/kg s.c.); Mean % reversal: 84.2 ± 10.2 (10 mg/kg i.p. + Amphetamine 3 mg/kg s.c.); Mean % reversal: 90.0 ± 12.7 (30 mg/kg i.p. + Amphetamine 3 mg/kg s.c.)
Adult male C57/bl6 mice are placed in the activity chambers (Med Associates) to habituate. 90 min later the mice were administered VU6024578 (3–30 mg/kg i.p. Ten ml/kg) or vehicle (0.5% natrasol/0.015% Tween 80) and placed back in the activity chambers. Thirty minutes later the animals were administered Amphetamine (3 mg/kg) and placed back in the activity chambers for 1 h. The data for the studies were analyzed by a between-group 2 way analysis of variance for compound dose and time. Total ambulation from 125 to 180 min was analyzed by one-way ANOVA. Each dose group was compared with the vehicle control group. The calculations were performed and graphed using GraphPad Prism (version 4.03, GraphPad, La Jolla, CA).

Sprague–Dawley rats = assay: amphetamine-induced hyperlocomotion (rat); assay type: in vivo
Description: Here, administration of 0.75 mg/kg IP of amphetamine induced a robust hyperlocomotive state in rats (>1200 beam breaks), which was dose-dependently reversed by oral administration of 19d. […] Considering the longer time point for exposure and the results, mGlu1 has sufficient target coverage and PK/PD is established for this paradigm.[24]
Figure 7 Rat amphetamine-induced hyperlocomotion and reversal by VU6024578 (19d). Amphetamine (0.75 mg/kg IP) induced robust hyperlocomotion, which was dose-dependently reversed by oral administration (10% tween 80) of 19d. TEXT PRINTED IN THE PICTURE: VU6024578: Mean % reversal: -0.2 ± 13.0 (1 mg/kg p.o. + Amphetamine 0.75 mg/kg s.c.); Mean % reversal: 31.6 ± 10.2 (3 mg/kg p.o. + Amphetamine 0.75 mg/kg s.c.); Mean % reversal: 31.4 ± 4.3 (5.6 mg/kg p.o. + Amphetamine 0.75 mg/kg s.c.); Mean % reversal: 41.8 ± 7.1 (10 mg/kg p.o. + Amphetamine 0.75 mg/kg s.c.)
Adult male Sprague–Dawley rats placed into the activity chambers (Med Associates). Thirty minutes after placement in the chambers, the rats were administered VU6024578 (1–10 mg/kg p.o.) or vehicle. Sixty minutes later the rats were injected with amphetamine (0.75 mg/kg s.c. One ml/kg) or vehicle (saline) and placed back in the activity chambers for 90 min. The data for the studies were analyzed by a between-group 2 way analysis of variance for compound dose and time. Each dose group was compared with the vehicle control group. The calculations were performed and graphed using GraphPad Prism (version 4.03, GraphPad, La Jolla, CA). The AUC was analyzed by a 1-way ANOVA with a Dunnett’s post hoc test.

[1] = plasma exposure in satellite mice; assay type: in vivo; settings: male, C57BL/6JRj, mouse, sc
From the text: We have also employed here event-related potentials (ERPs) and auditory-evoked oscillations, which serve as critical translational biomarkers, to assess the impact of our investigational drug on sensory processing and cognitive functions, providing valuable data on its potential efficacy in treating disorders like schizophrenia. Detailed description of the methodology, setup specifications and recording procedure and analysis of the 40 Hz auditory steady-state response (ASSR) protocol can be found in Schuelert et al.[27] […] Reduced entrainment of gamma oscillation reflects abnormalities in basic sensory registration and processing but is also associated with impaired higher cognitive functions.[32] ASSR can also be reliably impaired preclinically by different NMDA receptor antagonists.[33],[34] […] Abnormalities associated with the filtering or “gating” of sensory information are among the most consistent findings in schizophrenia research.[35] N100 gating deficits also correlated with negative-cognitive deficits dimensions of schizophrenia[36] and can be modeled preclinically with NMDA receptor antagonists.[37]19d reversed N1 sensory gating deficit induced by MK-801 with the highest dose of 10 mg/kg (Figure 12B). Mean plasma exposures in satellite mice after subcutaneous administration of 19d at 0.8, 4, and 10 mg/kg were 187, 1207, and 2490 nM, respectively.
Male C57BL/6JRj mice (12–14 weeks old, 28–30 g, n = 13–19 per treatment arm) (Janvier Laboratories, Le Genest-Saint-Isle, France) were group housed prior to surgery (four animals per cage) and single housed after surgery under standard light-dark conditions (12 h/12 h, lights on 06:00–18:00) with food and tap water available ad libitum. C57BL/6JRj mice were used as they are well suited for neurophysiological cortical network investigations using EEG techniques (Schuelert et al., 2018). […]

TNF-alpha = assay: Eurofins radioligand binding panel; set-up: species or system human; settings: agonist radioligand
From the text: (§1) Table S1. Eurofins Lead Profiling Screen Data
(§2) This is a radioligand binding panel of 80 targets including GPCRs, ion channels, transporters and nuclear hormones. Biochemical assay results are presented as the percent inhibition of specific […]
(§3) Results showing an inhibition or stimulation higher than 50% are considered to represent significant effect and are highlighted

sigma (non-selective) = assay: Eurofins radioligand binding panel; set-up: species or system human; settings: agonist radioligand
From the text: as §1, §2, §3

Compound: Cn1nc(-c2ccnn2C)cc1CNC(=O)c1cc(-c2ccco2)ccc1Cl [Compound 19d, 2-Chloro-N-((1,2′-dimethyl-1H,2’H-[3,3′-bipyrazol]-5-yl)methyl)-5-(furan-2-yl)benzamide]
- reversal of AHL, in words (C57Bl/6 mice; 3 mg/kg): no reversal
- Mean % reversal of AHL (C57Bl/6 mice; 3 mg/kg i.p.): -7.7 ± 32.6%
- reversal of AHL, in words (C57Bl/6 mice; 10 mg/kg): Full reversal
- Mean % reversal of AHL (C57Bl/6 mice; 10 mg/kg i.p.): 84.2 ± 10.2%
- reversal of AHL, in words (C57Bl/6 mice; 30 mg/kg): Full reversal
- Mean % reversal of AHL (C57Bl/6 mice; 30 mg/kg i.p.): 90.0 ± 12.7%
- Mean % reversal of AHL (Sprague–Dawley rats; 1 mg/kg p.o.): -0.2 ± 13.0%
- Mean % reversal of AHL (Sprague–Dawley rats; 3 mg/kg p.o.): 31.6 ± 10.2%
- Mean % reversal of AHL (Sprague–Dawley rats; 5.6 mg/kg p.o.): 31.4 ± 4.3%
- Mean % reversal of AHL (Sprague–Dawley rats; 10 mg/kg p.o.): 41.8 ± 7.1%
- minimum effective dose (MED), AHL (Sprague–Dawley rats; p.o.): 3 mg/kg
- concentration at 60 min ([1]; 0.8 mg/kg s.c.): 0.187 µM
- concentration at 60 min ([1]; 4 mg/kg s.c.): 1.21 µM
- concentration at 60 min ([1]; 10 mg/kg s.c.): 2.49 µM
- % Inhibition at 10 µM (TNF-alpha): 2%
- % Inhibition at 10 µM (sigma (non-selective)): -11%
